Results taken from patent US20260240817A1, “COMPOSITIONS AND METHODS FOR TREATING CHARCOT-MARIE-TOOTH DISEASE” (priority 2023, published 2026).
Entries after “also recorded” stand apart in the source; their conditions may differ.

How the values were obtained:
CMT2D Gars^P278KY mice = test: In situ force and CMAP of triceps surae on sciatic nerve stimulation, CMT2D model; type: in vivo, mouse
Procedure: CMT2D Gars^P278KY mice (Jackson laboratories, stock 17540) were used (Spauling et al. 2016). All handling and use of animals complied with Danish Animal Welfare regulations (licence 2017-15-0201-01223). Animals were fed ad libitum, kept at 12 h light/dark condition at 21° C. and observed daily.
(§1) Mice were removed from their housing on the day of experiment and sedated with isoflurane (2-3%) dissolved in oxygen (supplied in a mask placed around the mouth and nose (Microvent 1, Hallowell EMC)) and placed on a heated mat. Sedation was ensured by testing the reflexes of the front limbs by tweezing them with a set of tweezers. Temperature was monitored by rectal probe. When fully sedated the Achilles tendon was blotted, tied by cotton string to a force transducer (Grass instruments) and cut distal to the cotton string, to allow recording of force from muscle of the lower limb. To record compound muscle action potentials (CMAP), two small needle electrodes were placed subcutaneously, one over the belly of the triceps surae muscle, and one at the distal part close to the tendon. To allow stimulation of the sciatic nerve, two stimulation needle electrodes were inserted at the base of the tail, one on each side of the sciatic nerve. Optimal placement was tested by applying short pulses via the stimulation electrodes, and assessing the resulting force and CMAP. When a stable response was obtained, electrodes were secured with tape, and the animal was allowed to rest for 10 minutes.
The single fibre measurements of EPP was performed in animals aged 8 to 15 weeks, whilst the in situ stimulation protocol part was performed in animals 37 weeks of age, from the same litter.
(§2) After optimal set-up and rest, the following stimulation paradigm was initiated: Every 30 seconds the sciatic nerve was stimulated at 8-12 Volt by pulses of 0.1 ms duration at 12 Hz with 10 pulses (12 Hz protocol). This was repeated 9 times after which a single stimulation at 120 Hz for 1 s was made. The 12 Hz protocol was then again repeated 9 times followed a stimulation at 30 Hz for 1 s. This cycle was repeated throughout the experiments providing recordings of force and CMAP at 120 Hz and 30 Hz every 10th minute interspaced by 12 Hz protocols every 30 second. When 3 consecutive measurements of 120 Hz were similar, NMD670 was administered I.V. (8 mg/kg dissolved in phosphate buffered saline at 2 mg/mL), while the stimulation paradigm continued. Animals were monitored for 6 hours after injection of NMD670. Force and CMAP were measured and digitalized by an AD converter (CED, UK,) and analysed in “Signal 6” (Cambridge Electronic Designs, UK). When analysing force traces, the peak amplitude of each twitch peak at 12 and 30 Hz was measured, and the baseline subtracted. The force at 30 and 120 Hz was also quantified as a force-time integral, or area under the curve (AUC). The CMAP recordings were quantified as the peak-to-peak levels for each CMAP in every train. The peak heights or CMAP levels were then expressed as ratios relative to the first CMAP peak in the train e.g. forth peak relative to 1st peak (T4/T1) and 10th peak relative to 1st peak (T10/T1).

WT mice = test: In situ force and CMAP of triceps surae on sciatic nerve stimulation, wild type; type: in vivo, mouse
Source text: as §1, §2

[1] = Tablet dissolution (USP2 paddles, pH 6.8); type: physicochemical; conditions: immediate release film-coated tablets; after a maximum of 60 minutes; USP2 paddles 75 RPM, 37° C., 900 ml pH 6.8
Procedure: Tablet dissolution was determined as follows. […] Dissolution Media pH 6.8 was prepared by dissolving 27.3g Na2HPO4·2H2O and 4.9 g Citric Acid in 1 L Milli-Q water. The pH was measured and adjusted if necessary to pH 6.8. 900 mL of dissolution media pH 6.8 was accurately transferred into each dissolution vessel. The apparatus was assembled, and the dissolution media was heated to 37° C.±0.5° C. The T=0 point was extracted from each vessel prior to dropping the tablets into the dissolution vessels. One tablet was gently dropped into each dissolution vessel, and rotation of the paddle was immediately started. Samples were taken that the sample extraction timepoints and analysed using the HPLC method.

mouse model of CMT1A = test: In vivo hind leg force (torque) on sciatic nerve stimulation in mouse model of CMT1A
Procedure: Male and female mice (Jacson Laboratory Strain #:030052) approx. 6-7 months of age at time of study start were used. These genetically modified mice are used as a disease model to study Charcot Marie Tooth (CMT) disease type 1A (CMT1A).
The sodium salt of NMD670 was dissolved in phosphate buffered saline (PBS) to a dose volume of 1 mg/mL. The entire amount of dose-solution was then transferred to a vial labelled A or B (for blinding purposes). The vehicle control solution was PBS and this was transferred to a vial labelled A or B (for blinding purposes). Compound was dosed IP at a volume of 10 mL/kg, from a 1 mg/mL dose solution.
(§3) Animal was sedated (isoflurane inhalation 2% in ambient air) and prepared for assessment of force production from the hind leg, via electrical stimulation of the sciatic nerve in a static position. Stimulation electrodes were inserted at the sciatic nerve, and test pulses of low current amplitude were used to adjust position of all electrodes until a stable reproducible signal was achieved twice. The force resulting from supramaximal electrical stimulation of the supplying motor nerve was recorded from a foot-pad moved by the foot/paw of the animal. See table Table 21 for detailed stimulation protocol.
NMD670 or vehicle was administered by IP injection at a volume of 10 mL/kg from a 1 mg/mL dose solution while sedated in the EMG measurement set up. 10 to 15 minutes was allowed to elapse before next step was initiated.
as §3, with “The animal remained” for “Animal was”, “sedated” for “sedated (isoflurane inhalation 2% in ambient air)”, “See” for “See table”
Each mouse was tested prior to intervention with test article, and then tested after IP injection of 10 mg/kg NMD670 or vehicle (PBS). A washout period was then allowed (48 hours), and the mouse was subjected to the same test, but receiving the opposite treatment to that on the first day. All mice thus received both vehicle and NMD670, in a randomized order (FIG. 6).

[2] = Gars^P278KY mice, after injection of NMD670
[3] = Gars^P278KY mice, after injection of NMD670, not fully normalized
[4] = Gars^P278KY, after 8 mg/kg i.v. (before 100)
[5] = Wild Type, after NMD670 (before 100)

In the case of C[C@H](Oc1ccc(Br)cc1-c1ccon1)C(=O)O [NMD670, (2S)-2-[4-bromo-2-(1,2-oxazol-3-yl)phenoxy]propanoic acid], the “force, CMAP and relative force peaks (T4 or T10/T1)” value (CMT2D Gars^P278KY mice; Gars^P278KY mice, after 8 mg/kg NMD670 i.v., 12, 30, 120 Hz stimulation) is reported as “less decrease in amplitudes; also recorded: improved; also recorded: increase”, the “T4/T1 and T10/T1 ratios of twitch force” value (CMT2D Gars^P278KY mice; [2]) is reported as “normalization” and the “increase in absolute twitch force” value (CMT2D Gars^P278KY mice; [2]) is reported as 25%. The “increase of force during 30 Hz stimulation” value (CMT2D Gars^P278KY mice; [3]) was 21%, the “increase of force during 120 Hz stimulation” value (CMT2D Gars^P278KY mice; [3]) was 30% and the “Twitch force” value (CMT2D Gars^P278KY mice; Gars^P278KY, after 8 mg/kg NMD670 i.v. (before 6.06 ± 0.8)) was 7.5 ± 1.1 g. For the same molecule, the “Twitch force relative to BW” value (CMT2D Gars^P278KY mice; Gars^P278KY, after 8 mg/kg i.v. (before 0.42 ± 0.05)) was 0.51 ± 0.05, the “12 Hz Ratios CMAP T10/T1” value (CMT2D Gars^P278KY mice; Gars^P278KY, after 8 mg/kg i.v. (before 63.5 ± 4.91)) was 76.1 ± 4.37 and the “12 Hz Ratios CMAP T4/T1” value (CMT2D Gars^P278KY mice; Gars^P278KY, after 8 mg/kg i.v. (before 75.5 ± 2.8)) was 86.3 ± 2.44. For the same molecule, the “Force 12 Hz Ratios T10/T1” value (CMT2D Gars^P278KY mice; Gars^P278KY, after 8 mg/kg i.v. (before 82.0 ± 6.0)) was 93.8 ± 5.7%, the “EMG (CMAP) 30 Hz 5/1” value (CMT2D Gars^P278KY mice; Gars^P278KY, after 8 mg/kg i.v. (before 82.4 ± 3.3)) was 95.3 ± 2.4 and the “EMG (CMAP) 120 Hz 5/1” value (CMT2D Gars^P278KY mice; Gars^P278KY, after 8 mg/kg i.v. (before 83.8 ± 13.9)) was 102.0 ± 4.3. The “Force 12 Hz Ratios T4/T1” value (CMT2D Gars^P278KY mice; Gars^P278KY, after 8 mg/kg i.v. (before 88.2 ± 5.1)) was 97.8 ± 5.0%, the “Force 30 Hz AUC (% of initial)” value (CMT2D Gars^P278KY mice; [4]) was 124.1 ± 3.7 % of initial and the “Force 120 Hz AUC (% of initial)” value (CMT2D Gars^P278KY mice; [4]) was 136.7 ± 29.9 % of initial. For the same molecule, the “increase of ratio of the 5th and 1st CMAP peaks” value (WT mice; WT mice after injection of NMD670, 30 and 80 Hz stimulations as printed) was “not significantly different”, the “Twitch force relative to BW” value (WT mice; Wild Type, after NMD670 (before 1.08 ± 0.01)) was 1.06 ± 0.02 and the “Twitch force” value (WT mice; Wild Type, after NMD670 (before 21.6 ± 1.3)) was 22.2 ± 2.3 g. For the same molecule, the “Force 12 Hz Ratios T4/T1” value (WT mice; Wild Type, after NMD670 (before 96.6 ± 1.3)) was 97.7 ± 06%, the “Force 12 Hz Ratios T10/T1” value (WT mice; Wild Type, after NMD670 (before 97.3 ± 0.6)) was 99.2 ± 0.3% and the “Force 30 Hz AUC (% of initial)” value (WT mice; [5]) was 102.9 ± 1.9 % of initial. The “Force 120 Hz AUC (% of initial)” value (WT mice; [5]) was 100.7 ± 2.7 % of initial, the “12 Hz Ratios CMAP T4/T1” value (WT mice; Wild Type, after NMD670 (before 102.2 ± 0.9)) was 103.1 ± 0.2 and the “12 Hz Ratios CMAP T10/T1” value (WT mice; Wild Type, after NMD670 (before 102.8 ± 0.1)) was 102.8 ± 2.2. The “EMG (CMAP) 30 Hz 5/1” value (WT mice; Wild Type, after NMD670 (before 105.8 ± 3.1)) was 119.0 ± 11.6, the “EMG (CMAP) 120 Hz 5/1” value (WT mice; Wild Type, after NMD670 (before 110.2 ± 6.5)) was 123.5 ± 20.6 and the “NMD670 released from the tablets” value [1] was “Not less than 80%”. For the same molecule, the “ability to sustain force during stimulated contraction” value (mouse model of CMT1A; 10 mg/kg IP, compared to Vehicle) was “markedly improved”, the stimulated force (mouse model of CMT1A; 10 mg/kg intra peritoneally, compared to vehicle treatment) was “significantly increase” and the “Change in Torque (peak stimulated force, before to after treatment)” value (“Change in Torque” below) (mouse model of CMT1A; 1 Hz, 10 mg/kg IP, vehicle −0.37) was 0.95 mN*m. For the same molecule, the “Change in Torque” value (mouse model of CMT1A; 15 Hz, 10 mg/kg IP, vehicle −0.46) was 0.59 mN*m, the “Change in Torque” value (mouse model of CMT1A; 30 Hz, 10 mg/kg IP, vehicle −0.95) was 0.49 mN*m and the “increase of peak muscle force” value (mouse model of CMT1A; 60 Hz, 10 mg/kg IP) was 1.13 mNm. For the same molecule, the “Change in Torque” value (mouse model of CMT1A; 60 Hz, 10 mg/kg IP, vehicle −1.49) was 1.13 mN*m, the “Change in Fade (before to after treatment)” value (from here on “Change in Fade”) (mouse model of CMT1A; 60 Hz, 10 mg/kg IP, vehicle −1.5) was 2.2% and the “increase of peak muscle force” value (mouse model of CMT1A; 120 Hz, 10 mg/kg IP) was 1.67 mNm. For the same molecule, the “Change in Torque” value (mouse model of CMT1A; 120 Hz, 10 mg/kg IP, vehicle −1.36) was 1.67 mN*m, the “Change in Fade” value (mouse model of CMT1A; 120 Hz, 10 mg/kg IP, vehicle −14.1) was 8.1% and the “improvement of ability to sustain force” value (mouse model of CMT1A; 200 Hz, 10 mg/kg IP) was 18.3 % point. For the same molecule, the “Change in Torque” value (mouse model of CMT1A; 200 Hz, 10 mg/kg IP, vehicle −1.42) was 1.90 mN*m and the “Change in Fade” value (mouse model of CMT1A; 200 Hz, 10 mg/kg IP, vehicle −24.1) was 18.3%.
